# Experimental data from patent publication US8846698B2, “Pyrrolo[2,3-d]pyrimidine tropomysin-related kinase inhibitors” (Pfizer Limited, priority 2011, dated 2014).
# Molecular target: TRKA (Homo sapiens (Human), UniProt P04629)
# Assay: Isolated TRK enzyme assay (HTRF KinEASE-TK), TRKA
# Type: biochemical
# Conditions: read-out: Trka enzyme (IC50)
# Chain of TRKA (P04629 441-796): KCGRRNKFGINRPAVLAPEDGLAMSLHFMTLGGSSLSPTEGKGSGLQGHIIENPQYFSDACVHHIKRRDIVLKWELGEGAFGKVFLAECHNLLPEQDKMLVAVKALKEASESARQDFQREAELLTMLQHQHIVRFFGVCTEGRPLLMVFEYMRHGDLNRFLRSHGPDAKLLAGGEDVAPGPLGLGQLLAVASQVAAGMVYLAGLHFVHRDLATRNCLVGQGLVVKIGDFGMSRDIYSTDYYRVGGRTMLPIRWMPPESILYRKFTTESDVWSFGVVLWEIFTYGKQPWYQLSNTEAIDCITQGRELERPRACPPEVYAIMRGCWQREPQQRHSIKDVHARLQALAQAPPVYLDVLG
row,Compound,IC50
1,"O=C(Cc1cccc(OC(F)(F)F)c1)Nc1cncc(C(=O)c2cn(C(CO)CO)c3ncncc23)c1 [Example 279, N-[5-({7-[2-hydroxy-1-(hydroxymethyl)ethyl]-7H-pyrrolo[2,3-d]pyrimidin-5-yl}carbonyl)pyridin-3-yl]-2-[3-(trifluoromethoxy)phenyl]acetamide]",439 nM
2,"O=C(Cc1ccc(OC(F)(F)F)cc1)Nc1cncc(C(=O)c2cn(C(CO)CO)c3ncncc23)c1 [Example 280, N-[5-({7-[2-hydroxy-1-(hydroxymethyl)ethyl]-7H-pyrrolo[2,3-d]pyrimidin-5-yl}carbonyl)pyridin-3-yl]-2-[4-(trifluoromethoxy)phenyl]acetamide]",498 nM
3,"O=C(Cc1ccc(Cl)cn1)Nc1cncc(C(=O)c2cn(C(CO)CO)c3ncncc23)c1 [Example 282, 2-(5-chloropyridin-2-yl)-N-[5-({7-[2-hydroxy-1-(hydroxymethyl)ethyl]-7H-pyrrolo[2,3-d]pyrimidin-5-yl}carbonyl)pyridin-3-yl]acetamide]",1010 nM
4,"CC(C)n1cc(C(=O)c2cncc(NC(=O)[C@@H](Cc3ccc(C(=O)c4ccccc4)cc3)NC(=O)OC(C)(C)C)c2)c2cncnc21 [Example 284, 4-benzoyl-N-alpha-(tert-butoxycarbonyl)-N-{5-[(7-isopropyl-7H-pyrrolo[2,3-d]pyrimidin-5-yl)carbonyl]pyridin-3-yl}-L-phenylalaninamide]",2020 nM
5,"CC(C)n1cc(C(=O)c2cncc(NC(=O)[C@H](N)Cc3ccc(C(=O)c4ccccc4)cc3)c2)c2cncnc21 [Example 285, 4-benzoyl-N-{5-[(7-isopropyl-7H-pyrrolo[2,3-d]pyrimidin-5-yl)carbonyl]pyridin-3-yl}-D-phenylalaninamide]",7820 nM
6,"CC(C)n1cc(C(=O)c2cncc(NC(=O)[C@@H](N)Cc3ccc(C(=O)c4ccccc4)cc3)c2)c2cncnc21 [Example 287, 4-benzoyl-N-{5-[(7-isopropyl-7H-pyrrolo[2,3-d]pyrimidin-5-yl)carbonyl]pyridin-3-yl}-L-phenylalaninamide]",4350 nM
7,"CC(C)n1cc(C(=O)c2cncc(NC(=O)Cc3ccc(C(=O)c4ccccc4)cc3)c2)c2cncnc21 [Example 289, 2-(4-benzoylphenyl)-N-(5-(7-isopropyl-7H-pyrrolo[2,3-d]pyrimidine-5-carbonyl)pyridin-3-yl)acetamide]",1370 nM
8,"CC(C)n1cc(C(=O)c2cncc(NC(=O)c3ccc(C4(C(F)(F)F)N=N4)cc3)c2)c2cncnc21 [Example 291, N-{5-[(7-isopropyl-7H-pyrrolo[2,3-d]pyrimidin-5-yl)carbonyl]pyridin-3-yl}-4-[3-(trifluoromethyl)-3H-diaziren-3-yl]benzamide]",3230 nM
9,"CC(C)n1cc(C(=O)c2cncc(N(C)C(=O)Cc3ccc(C#N)cc3)c2)c2cncnc21 [Example 298, 2-(4-cyanophenyl)-N-{5-[(7-isopropyl-7H-pyrrolo[2,3-d]pyrimidin-5-yl)carbonyl]pyridin-3-yl}-N-methylacetamide]",1460 nM
10,"O=C(Cc1ccc(Cl)cc1)Nc1cncc(C(=O)c2cn(C3(CO)COC3)c3ncncc23)c1 [Example 299, 2-(4-Chloro-phenyl)-N-{5-[7-(3-hydroxymethyl-oxetan-3-yl)-7H-pyrrolo[2,3-d]pyrimidine-5-carbonyl]-pyridin-3-yl}-acetamide]",539 nM
11,"O=C(Cc1ccc(Cl)cn1)Nc1cncc(C(=O)c2cn(C3(CO)COC3)c3ncncc23)c1 [Example 301, 2-(5-chloropyridin-2-yl)-N-[5-({7-[3-(hydroxymethyl)oxetan-3-yl]-7H-pyrrolo[2,3-d]pyrimidin-5-yl}carbonyl)pyridin-3-yl]acetamide]",428 nM
12,"NC(=O)Cn1cc(C(=O)c2cncc(NC(=O)Cc3ccc(Cl)cc3)c2)c2cncnc21 [Example 303, N-(5-{[7-(2-amino-2-oxoethyl)-7H-pyrrolo[2,3-d]pyrimidin-5-yl]carbonyl}pyridin-3-yl)-2-(4-chlorophenyl)acetamide]",1220 nM
13,"CN(C)C(=O)Cn1cc(C(=O)c2cncc(NC(=O)Cc3ccc(Cl)cc3)c2)c2cncnc21 [Example 304, 2-{5-[(5-{[(4-chlorophenyl)acetyl]amino}pyridin-3-yl)carbonyl]-7H-pyrrolo[2,3-d]pyrimidin-7-yl}-N,N-dimethylacetamide]",3900 nM
14,"CNC(=O)Cn1cc(C(=O)c2cncc(NC(=O)Cc3ccc(Cl)cc3)c2)c2cncnc21 [Example 305, 2-(4-chlorophenyl)-N-[5-({7-[2-(methylamino)-2-oxoethyl]-7H-pyrrolo[2,3-d]pyrimidin-5-yl}carbonyl)pyridin-3-yl]acetamide]",2640 nM
15,"O=C(Cc1ccc(Cl)cc1)Nc1cncc(C(=O)c2c[nH]c3ncncc23)c1 [Example 308, 2-(4-Chlorophenyl)-N-[5-(7H-pyrrolo[2,3-d]pyrimidin-5-ylcarbonyl)pyridin-3-yl]acetamide]",592 nM

# Stronger by IC50, values ahead:
row,IC50,Compound
1,54.3 nM,"O=C(Cc1ccc(Cl)cc1Cl)Nc1cncc(C(=O)c2cn(C(CO)CO)c3ncncc23)c1 [Example 278, 2-(2,4-dichlorophenyl)-N-[5-({7-[2-hydroxy-1-(hydroxymethyl)ethyl]-7H-pyrrolo[2,3-d]pyrimidin-5-yl}carbonyl)pyridin-3-yl]acetamide]"
2,161 nM,"O=C(Nc1cncc(C(=O)c2cn(C(CO)CO)c3ncncc23)c1)c1cc(F)cc(C(F)(F)F)c1 [Example 281, 3-fluoro-N-[5-({7-[2-hydroxy-1-(hydroxymethyl)ethyl]-7H-pyrrolo[2,3-d]pyrimidin-5-yl}carbonyl)pyridin-3-yl]-5-(trifluoromethyl)benzamide]"
3,297 nM,"O=C(Cn1ccc(C(F)(F)F)n1)Nc1cncc(C(=O)c2cn(C(CO)CO)c3ncncc23)c1 [Example 283, N-[5-({7-[2-hydroxy-1-(hydroxymethyl)ethyl]-7H-pyrrolo[2,3-d]pyrimidin-5-yl}carbonyl)pyridin-3-yl]-2-[3-(trifluoromethyl)-1H-pyrazol-1-yl]acetamide]"
4,43.1 nM,"CC(C)n1cc(C(=O)c2cncc(NC(=O)Cc3cccc(C(=O)c4ccccc4)c3)c2)c2cncnc21 [Example 288, 2-(3-benzoylphenyl)-N-(5-(7-isopropyl-7H-pyrrolo[2,3-d]pyrimidine-5-carbonyl)pyridin-3-yl)acetamide]"
5,167 nM,"CC(C)n1cc(C(=O)c2cncc(NC(=O)c3cccc(C4(C(F)(F)F)N=N4)c3)c2)c2cncnc21 [Example 290, N-{5-[(7-isopropyl-7H-pyrrolo[2,3-d]pyrimidin-5-yl)carbonyl]pyridin-3-yl}-3-[3-(trifluoromethyl)-3H-diaziren-3-yl]benzamide]"
6,37.7 nM,"CC(C)n1cc(C(=O)c2cncc(NC(=O)c3cccc(C(=O)C(F)(F)F)c3)c2)c2cncnc21 [Example 292, N-{5-[(7-isopropyl-7H-pyrrolo[2,3-d]pyrimidin-5-yl)carbonyl]pyridin-3-yl}-3-(trifluoroacetyl)benzamide]"
7,20.2 nM,"Cn1cc(C(=O)c2cncc(NC(=O)Nc3ccc(Cl)cc3)c2)c2cncnc21 [Example 293, 1-(4-chlorophenyl)-3-{5-[(7-methyl-7H-pyrrolo[2,3-d]pyrimidin-5-yl)carbonyl]pyridin-3-yl}urea]"
8,61.4 nM,"Cn1cc(C(=O)c2cncc(NC(=O)Nc3ccc(C(F)(F)F)cc3)c2)c2cncnc21 [Example 294, 1-{5-[(7-methyl-7H-pyrrolo[2,3-d]pyrimidin-5-yl)carbonyl]pyridin-3-yl}-3-[4-(trifluoromethyl)phenyl]urea]"
9,31.9 nM,"Cn1cc(C(=O)c2cncc(NC(=O)Nc3cccc(C(F)(F)F)c3)c2)c2cncnc21 [Example 295, 1-{5-[(7-methyl-7H-pyrrolo[2,3-d]pyrimidin-5-yl)carbonyl]pyridin-3-yl}-3-[3-(trifluoromethyl)phenyl]urea]"
10,47.7 nM,"Cn1cc(C(=O)c2cncc(NC(=O)Nc3ccc(OC(F)(F)F)cc3)c2)c2cncnc21 [Example 296, 1-{5-[(7-methyl-7H-pyrrolo[2,3-d]pyrimidin-5-yl)carbonyl]pyridin-3-yl}-3-[4-(trifluoromethoxy)phenyl]urea]"
11,299 nM,"CC(C)n1cc(C(=O)c2cncc(N(C)C(=O)Cc3ccc(Cl)cc3)c2)c2cncnc21 [Example 297, 2-(4-chlorophenyl)-N-{5-[(7-isopropyl-7H-pyrrolo[2,3-d]pyrimidin-5-yl)carbonyl]pyridin-3-yl}-N-methylacetamide]"
12,52.2 nM,"O=C(Cc1ccc(C(F)(F)F)cc1)Nc1cncc(C(=O)c2cn(C3(CO)COC3)c3ncncc23)c1 [Example 300, N-{5-[7-(3-Hydroxymethyl-oxetan-3-yl)-7H-pyrrolo[2,3-d]pyrimidine-5-carbonyl]-pyridin-3-yl}-2-(4-trifluoromethyl-phenyl)-acetamide]"
13,156 nM,"O=C(Cn1ccc(C(F)(F)F)n1)Nc1cncc(C(=O)c2cn(C3(CO)COC3)c3ncncc23)c1 [Example 302, N-[5-({7-[3-(hydroxymethyl)oxetan-3-yl]-7H-pyrrolo[2,3-d]pyrimidin-5-yl}carbonyl)pyridin-3-yl]-2-[3-(trifluoromethyl)-1H-pyrazol-1-yl]acetamide]"
14,53.9 nM,"CC1(n2cc(C(=O)c3cncc(NC(=O)Cc4ccc(Cl)cc4)c3)c3cncnc32)COC1 [Example 309, 2-(4-chlorophenyl)-N-(5-{[7-(3-methyloxetan-3-yl)-7H-pyrrolo[2,3-d]pyrimidin-5-yl]carbonyl}pyridin-3-yl)acetamide]"
15,98.4 nM,"CC1(n2cc(C(=O)c3cncc(NC(=O)Cc4ccc(Cl)cn4)c3)c3cncnc32)COC1 [Example 310, 2-(5-chloropyridin-2-yl)-N-(5-{[7-(3-methyloxetan-3-yl)-7H-pyrrolo[2,3-d]pyrimidin-5-yl]carbonyl}pyridin-3-yl)acetamide]"
16,238 nM,"CC1(n2cc(C(=O)c3cncc(NC(=O)Cn4ccc(C(F)(F)F)n4)c3)c3cncnc32)COC1 [Example 311, N-(5-{[7-(3-methyloxetan-3-yl)-7H-pyrrolo[2,3-d]pyrimidin-5-yl]carbonyl}pyridin-3-yl)-2-[3-(trifluoromethyl)-1H-pyrazol-1-yl]acetamide]"
17,166 nM,"CC1(n2cc(C(=O)c3cncc(NC(=O)Cn4cc(C(F)(F)F)nn4)c3)c3cncnc32)COC1 [Example 312, N-(5-{[7-(3-methyloxetan-3-yl)-7H-pyrrolo[2,3-d]pyrimidin-5-yl]carbonyl}pyridin-3-yl)-2-[4-(trifluoromethyl)-1H-1,2,3-triazol-1-yl]acetamide]"
